Test results taken from ChEMBL document CHEMBL4665827, “Discovery of Small-Molecule Inhibitors of Receptor Activator of Nuclear Factor-κB Ligand with a Superior Therapeutic Index” (J Med Chem, 2020).
Calls of active or inactive are those of the source. No cut-off for these calls is given here.

Columns and labels:
[1] = target: T1, Tumor necrosis factor ligand superfamily member 11 (Homo sapiens) (UniProt O14788); test: (§1) Inhibition of RANKL (unknown origin) in RANKL cultured mouse RAW264.7 cells assessed as reduction in RANKL/RANK-interaction mediated NFATc1 expression by measuring NFATc1 protein expression at 10 uM preincubated for 1 hr followed by cell culture addition and measured after 2 days by Western blot analysis relative to positive control (reference value: 1); assay type: cell-based; details: time 49.0 hrs
T1 sequence (whole entry): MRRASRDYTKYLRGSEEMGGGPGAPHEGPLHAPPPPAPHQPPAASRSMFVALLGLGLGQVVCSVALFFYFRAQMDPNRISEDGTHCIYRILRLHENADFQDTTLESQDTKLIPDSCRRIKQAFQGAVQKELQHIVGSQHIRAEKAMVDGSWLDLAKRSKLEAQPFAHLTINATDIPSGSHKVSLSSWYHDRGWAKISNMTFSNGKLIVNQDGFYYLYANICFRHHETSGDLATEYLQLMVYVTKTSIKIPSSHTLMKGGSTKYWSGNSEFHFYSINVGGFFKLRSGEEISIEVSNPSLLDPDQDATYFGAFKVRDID

[2] = target: T1, Tumor necrosis factor ligand superfamily member 11 (Homo sapiens); test: as §1, with “cFOS” for “NFATc1”, “5” for “10”; assay type: cell-based; details: time 49.0 hrs
[3] = target: T2, Tumor necrosis factor ligand superfamily member 11 (Homo sapiens, UniProt O14788); test: Binding affinity to GST-fused human RANKL extracellular domain (Lys159 to Asp317 residues) expressed in Escherichia coli BL21(DE3) pLysS by fluorescence spectrophotometric assay; details: read-out: Kd
T2 sequence (O14788 whole entry): T1 sequence (whole entry)

[4] = target: T1, Tumor necrosis factor ligand superfamily member 11 (Homo sapiens); test: as §1, with “2” for “10”; assay type: cell-based; details: time 49.0 hrs
[5] = Cytotoxicity against mouse BMMC assessed as reduction in cell viability measured after 48 hrs by MTT assay; assay type: cell-based; details: mouse BMMC (bone marrow cells), read-out: LC50
[6] = target: T1, Tumor necrosis factor ligand superfamily member 11 (Homo sapiens); test: (§2) Inhibition of human RANKL-induced osteoclastogenesis in RANKL cultured mouse bone marrow cells assessed as reduction in RANKL/M-CSF-induced TRAP activity preincubated with RANKL for 1 hr followed by cell addition and subsequent media replenishment every 48 hrs for 4 days; assay type: cell-based; details: time 4.0 day
[7] = target: T1, Tumor necrosis factor ligand superfamily member 11 (Homo sapiens); test: as §2, with “phalloidin-labeled actin ring formation” for “RANKL/M-CSF-induced TRAP activity”, “days by Alexa Fluor 488-conjugated phalloidin/DAPI-staining based fluorescence microscopic analysis” for “days”
[8] = target: T1, Tumor necrosis factor ligand superfamily member 11 (Homo sapiens); test: Inhibition of human soluble RANKL trimerization assessed as increase in RANKL monomer level at 1:3 ratio of DSS to RANKL preincubated for 1 hr followed by DSS addition and measured after 1 hr by SDS-PAGE analysis; details: time 2.0 hrs
[9] = Therapeutic index, ratio of LC50 for mouse bone marrow cells to IC50 for Inhibition of human RANKL-induced osteoclastogenesis in RANKL cultured mouse bone marrow cells; assay type: toxicity; details: read-out: Ratio LC50/IC50
[10] = target: T1, Tumor necrosis factor ligand superfamily member 11 (Homo sapiens); test: as §1, with “cFOS” for “NFATc1”; assay type: cell-based; details: time 49.0 hrs
[11] = target: T1, Tumor necrosis factor ligand superfamily member 11 (Homo sapiens); test: as §1, with “5” for “10”; assay type: cell-based; details: time 49.0 hrs
[12] = target: T1, Tumor necrosis factor ligand superfamily member 11 (Homo sapiens); test: as §1, with “cFOS” for “NFATc1”, “2” for “10”; assay type: cell-based; details: time 49.0 hrs
[13] = target: T1, Tumor necrosis factor ligand superfamily member 11 (Homo sapiens); test: Inhibition of human RANKL-induced osteoclastogenesis in RANKL cultured mouse bone marrow cells assessed as reduction in RANKL/M-CSF-induced TRAP activity at 5 uM preincubated with RANKL for 1 hr followed by cell addition and subsequent media replenishment every 48 hrs for 4 days; assay type: cell-based; details: time 4.0 day
[14] = Effect on osteoblast differentiation in mouse MC3T3-E1 cells assessed as change in ALP activity at 2 to 10 uM with media replenishment every 3 days for 14 days; assay type: ADME, cell-based; details: mc3t3-e1, 336 h, dose 2-10 µM, time 14 day
[15] = target: T1, Tumor necrosis factor ligand superfamily member 11 (Homo sapiens); test: Inhibition of human RANKL-induced osteoclastogenesis in RANKL cultured mouse bone marrow cells assessed as reduction in phalloidin-labeled actin ring formation at 5 to 10 uM preincubated with RANKL for 1 hr followed by cell addition and subsequent media replenishment every 48 hrs for 4 days by Alexa Fluor 488-conjugated phalloidin/DAPI-staining based fluorescence microscopic analysis; details: dose microM 5-10, time 4.0 day
[16] = target: T1, Tumor necrosis factor ligand superfamily member 11 (Homo sapiens); test: Inhibition of human RANKL-induced osteoclastogenesis in RANKL cultured mouse bone marrow cells assessed as reduction in RANKL/M-CSF-induced TRAP activity at 5 to 10 uM preincubated with RANKL for 1 hr followed by cell addition and subsequent media replenishment every 48 hrs for 4 days; assay type: cell-based; details: dose microM 5-10, time 4.0 day
[17] = target: T1, Tumor necrosis factor ligand superfamily member 11 (Homo sapiens); test: Potency index, ratio of SPD-304 Kd to test compound Kd for binding affinity to GST-fused human RANKL extracellular domain (Lys159 to Asp317 residues) expressed in Escherichia coli BL21(DE3) pLysS by fluorescence spectrophotometric assay
[18] = target: T1, Tumor necrosis factor ligand superfamily member 11 (Homo sapiens); test: Inhibition of human soluble RANKL trimerization assessed as increase in RANKL monomer level preincubated for 1 hr followed by DSS addition and measured after 1 hr by SDS-PAGE analysis; details: time 2.0 hrs
[19] = target: T1, Tumor necrosis factor ligand superfamily member 11 (Homo sapiens); test: Inhibition of RANKL (unknown origin) in RANKL cultured mouse RAW264.7 cells assessed as reduction in RANKL/RANK-interaction mediated cFOS expression at 2 to 10 uM preincubated for 1 hr followed by cell culture addition and measured after 2 days by Western blot analysis; assay type: cell-based; details: dose microM 2-10, time 49.0 hrs
[20] = target: T1, Tumor necrosis factor ligand superfamily member 11 (Homo sapiens); test: Inhibition of RANKL (unknown origin) in RANKL cultured mouse RAW264.7 cells assessed as reduction in RANKL/RANK-interaction mediated NFATc1 expression at 2 to 10 uM preincubated for 1 hr followed by cell culture addition and measured after 2 days by Western blot analysis; assay type: cell-based; details: dose microM 2-10, time 49.0 hrs
BMMC = test: Cytotoxicity against mouse BMMC assessed as reduction in cell viability at 5 uM measured after 48 hrs by MTT assay; assay type: cell-based
[21] = target: T1, Tumor necrosis factor ligand superfamily member 11 (Homo sapiens); test: Inhibition of human soluble RANKL trimerization assessed as increase in RANKL monomer level at 1:3 to 1:10 ratio of DSS to RANKL preincubated for 1 hr followed by DSS addition and measured after 1 hr by SDS-PAGE analysis; details: time 2.0 hrs

`CN(CCN(C)C(=O)c1cn(-c2cccc([N+](=O)[O-])c2)c2ccccc12)C(=O)c1coc2ccccc2c1=O` showed a fold change (FC) [1] of 0.39, a fold change (FC) [2] of 0.56 and a Kd [3] of 2.18 µM. For the same molecule, the fold change (FC) [4] was 0.66, the CC50 at 48 h [5] was 44.2 µM and the inhibition [6] was “Dose-dependent effect”. For the same molecule, the inhibition [7] was “Dose-dependent effect”, the inhibition [8] was “Active” and the selectivity ratio [9] was 27.8. For the same molecule, the fold change (FC) [10] was 0.48, the fold change (FC) [11] was 0.52 and the fold change (FC) [12] was 0.58. The inhibition [13] was 100% and the Activity [14] was “Non-Toxic”.

For `CN(CCN(C)Cc1cn(S(=O)(=O)c2ccccc2)c2ccccc12)Cc1coc2ccccc2c1=O`, the Kd [3] was 5.24 µM, the CC50 at 48 h [5] was 58.5 µM and the inhibition [6] was “Dose-dependent effect”. For the same molecule, the inhibition [15] was “Active”, the selectivity ratio [9] was 23.4 and the inhibition [16] was “Active”. For the same molecule, the Ratio [17] was 2.7, the inhibition [18] was “Dose-dependent effect” and the inhibition [13] was 100%. For the same molecule, the Activity [14] was “Non-Toxic”.

With `CN(CCN(C)C(=O)c1cn(S(=O)(=O)c2ccccc2)c2ccccc12)C(=O)c1coc2ccccc2c1=O` the Kd [3] was 4.6 µM, the CC50 at 48 h [5] was 62.3 µM and the inhibition [6] was “Dose-dependent effect”. The selectivity ratio [9] was 21.8, the Ratio [17] was 3 and the inhibition [19] was “Active”. For the same molecule, the inhibition [13] was 100%, the inhibition [20] was “Active” and the Activity [14] was “Non-Toxic”.

In the case of `Cc1cc2occ(CN(C)CCN(C)Cc3cn(-c4cccc(C(F)(F)F)c4)c4ccccc34)c(=O)c2cc1C`, the Activity (BMMC) is reported as “Toxic”, the CC50 at 48 h [5] is reported as 3.2 µM and the inhibition [6] is reported as “Dose-dependent effect”. The selectivity ratio [9] was 3.2 and the inhibition [21] was “Active”.
